Laboratory results from US5547972A, “Therapeutic agents useful for treating inflammatory diseases” (The Boots Company PLC, priority 1991, dated 1996).
pIC50: −log10 of the molar value. Counter-ions that a name gives are not always drawn. Like-named read-outs stand apart in the source and are kept apart here.

How the values were obtained:
[1] = system: Zymosan Stimulated Macrophaqes; assay: Test A: Inhibition of Arachidonic Acid Release from Zymosan Stimulated Macrophages; assay type: cell-based, mouse (female MF1); details: read-out: Test A IC50
Protocol: Inhibition of Arachidonic Acid Release from Zymosan Stimulated Macrophaqes
Female MF1 mice (weighing 20 to 25 g) were killed using a rising concentration of CO2. The mice were laid on their backs and the abdomens wiped with 70% alcohol. The skin was pulled back, exposing the peritoneal wall. Medium A (5 ml) (see below) was injected into the peritoneal cavity of each mouse followed by approximately 1 ml of air using a 20 ml syringe and a 21 G×40 mm needle in order to form a suspension of macrophage cells. The medium and cells were then removed using a 19 G×40 mm needle. The resulting suspension was returned to a sterile beaker kept on ice. The extracts from all the mice were pooled and this pooled cell suspension was counted using a Coulter counter and adjusted to a final cell count of 1-1.3×10^6 cells/ml prior to labelling with [^3 H]-arachidonic acid. Typically five mice provided sufficient cells for each multiwell plate.
Sufficient [^3 H]-arachidonic acid in ethanol to give a final concentration of 1.6 μCi/ml (equivalent to 40 μCi/plate) was blown to dryness under nitrogen. The arachidonic acid was then resuspended in 1 or 2 ml of the cell suspension which was then mixed with the remainder of the cell suspension in a centrifuge bottle. The labelled cell suspension was then plated out into sterile plastic 96 flat-bottomed well plates (250 μl per well) and incubated overnight at 37° C. in a moist atmosphere of 5% CO2, 95% air.
The following day, non-adherent cells were removed by washing 3 times with sterile phosphate buffered saline (PBS). The adherent peritoneal macrophages were then cultured for a further 24 hours in the presence or absence of drugs, in medium B (see below) at 37° in a 5% CO2 atmosphere in order to measure the effects of drugs on the spontaneous release of arachidonic acid in the absence of stimulus. After this incubation, supernatants were removed to give media 1 and stored in sealed multi-well plates at 4° C. prior to scintillation counting. Drugs which potentiated spontaneous release of arachidonic acid (125% of controls) were deemed to be toxic at the concentration at which this phenomenon occurred. The supernatants were replaced by fresh medium C containing fresh drug and a stimulus. Three drugs were tested at six concentrations (100, 50, 20, 10, 5 and 1 μM) in replicates of four on each plate. The other wells contained controls consisting of a positive control (e.g. dexamethasone), medium (B) only and medium C only.
Incubation was then continued for a further 5 hours, whereupon the supernatants were collected to give media 2 and the adherent cells washed with PBS. The cells were then lysed with 100 μl of 0.1% TRITON® X100 in a 0.1% solution of bovine serum albumin in 0.9% saline and mechanically disrupted to give cell lysates. These supernatants (media 2) and cell lysates (Cells) were also stored in sealed multi-well plates at 4° C. prior to scintillation counting. 200 μl aliquots of media, or 100 μl aliquots of cells were counted using 2 ml of OPTIPHASE "HIGH SAFE" (Trademark of LKB) as scintillant.
The percentage of arachidonic acid released was calculated using the mean values for each group of 4 wells in the following equation. [formula] cpm=courts per minute
The value for the arachidonic acid release in the absence of stimulus (spontaneous, cpm of media 2) from cells which had been exposed to neither stimulus nor drug was subtracted from all equivalent values (cpm media 2, stimulated with or without drug) to give the net stimulated release. The percentage inhibition of arachidonic acid release caused by a drug may then be calculated using the following equation. [formula]
Compounds of formula I were tested at six concentrations (100, 50, 20, 10, 5 and 1 μM) and IC50 values calculated. Compounds with IC50 values<100 μM are considered to be active. Advantageous compounds have an IC50 value <50 μM.
Medium A (for peritoneal lavage) […]

[2] = system: Carrageenan-induced rat paw oedema; assay: Test B: Carrageenan-induced rat paw oedema test; assay type: in vivo, rat (female); details: inhibition of paw oedema, 1 h before carrageenan, 3 h after injection; for inhibition in vivo at 100 mg/kg: Rattus norvegicus, po, 3 h; for Test B % inhibition at 100 mg/kg: oral
Protocol: Carrageenan-induced rat paw oedema test
Female rats, weight range 125-150 g were fasted overnight. One of the hind legs of each animal was marked with a line at the connection between the cuboid/navicular and calcaneus/talus bones. Groups of six rats were orally dosed at 10 ml/kg, in random order, with a given dose of the test compound given as a solution or suspension in 10% (w/v) aqueous acacia solution.
One hour after dosing, 0.1 ml of 1% (w/v) sterile carrageenan λ in normal saline was injected deeply into the plantar surface of the marked hind foot of each rat. The volume of the foot (up to the marked line) was measured immediately after injection using duplicate water displacement readings. Three hours after injection the foot volume was measured again and the percentage increase in foot volume relative to the initial reading was calculated.
The increase in foot volume (i.e. the degree of oedema) in drug treated animals when compared with that in the drug untreated control gave the degree of inhibition of paw oedema by the drug.
Compounds were considered to be active in this test if they produced a 20% or greater inhibition of paw oedema in at least two out of three tests after oral dosing at 100 mg/kg. Statistical significance was assessed using the Student't test for single dose studies and Dunnett's test for multiple dose studies. More advantageous compounds were active in both Tests A and B,

[3] = Mus musculus, Macrophage, 5 h, inhibition of arachidonic acid release, six concentrations (100, 50, 20, 10, 5 and 1 μM), 5 h with zymosan
[4] = inhibition of arachidonic acid release, six concentrations (100, 50, 20, 10, 5 and 1 μM), 5 h with zymosan

pIC50 [1, 3]	Molecule	inhibition in vivo at 100 mg/kg [2] [%]	other results
4.09	CCOC(=O)c1ccc(C(C)(C)NCCCn2ccnc2)cc1 [Example 77, Ethyl 4-{1-[3-(imidazol-1-yl)propylamino]-1-methylethyl}benzoate]	23	
4.74	Clc1ccc(CNCCCn2cnc(Cl)c2Cl)cc1 [Example 64, N-(4-chlorobenzyl)-3-(4,5-dichloroimidazol-1-yl)propylamine dihydrochloride]	30	
4.68	CC(C)(NCCCCCn1ccnc1)c1ccc(Cl)cc1 [Example 62, N-[1-(4-chlorophenyl)-1-methylethyl]-5-(imidazol-1-yl)pentylamine]	42	
4.89	Cc1nc(C)n(CCCNC(C)c2ccc(Cl)cc2)c1C (centres unmarked) [Example 66, N-[1-(4-Chlorophenyl)ethyl]-3-(2,4,5-trimethylimidazol-1-yl)propylamine]	13	
4.33	Cc1ccc(C(C)(C)NCCCn2ccnc2)cc1 [Example 75, 3-(Imidazol-1-yl)-N-[1-methyl-1-(p-tolyl)ethyl]propylamine dihydrochloride]	42	
4.60	CC(C)c1nccn1CCCNCc1ccc(Cl)cc1 [Example 71, N-(4-Chlorobenzyl)-3-(2-isopropylimidazol-1-yl)propylamine-dihydrochloride]	10	
4.31	Cc1ccc(C(C)(C)NCCCn2ccnc2C)cc1 [Example 73, 3-(2-Methylimidazol-1-yl)-N-[1-methyl-1-(p-tolyl)ethyl]propylamine dihydrochloride]	8	
4.40	CC(C)(NCCCCn1ccnc1)c1ccc(Cl)cc1 [Example 89, N-[1-(4-chlorophenyl)-1-methylethyl]-4-(imidazol-1-yl)butylamine]	51	
4.62	CC(C)(NCCCn1cncc1CO)c1ccc(Cl)c(Cl)c1 [Example 84, 1-{3-[1-(3,4-Dichlorophenyl)-1-methylethylamino]propyl}imidazol-5-ylmethanol]	19	
4.74	CC(C)c1nccn1CCCNC(C)c1ccc(Cl)cc1 (centres unmarked) [Example 65, N-[1-(4-Chlorophenyl)ethyl]-3-(2-isopropylimidazol-1-yl)propylamine]	27	
4.22	CC(C)(NCCCn1cncc1CO)c1ccc(Cl)cc1 [Example 88, 1-{3-[1-(4-Chlorophenyl)-1-methylethylamino]propyl}imidazol-5-yl-methanol dihydrochloride]	6	
4.59	CCc1nccn1CCCNCc1ccc(Cl)cc1 [Example 72, N-(4-Chlorobenzyl)-3-(2-ethylimidazol-1-yl)propylamine]	18	

Second part, the molecule before the results:

Molecule	pIC50 [1, 3]	inhibition in vivo at 100 mg/kg [2] [%]	other results
c1ccc(C(NCCCn2ccnc2)c2ccccc2)cc1 [Example 34, N-benzhydryl-3-(imidazol-1-yl)propylamine dihydrochloride]	4.49	47	
N-[1-(4-Chlorophenyl)ethyl]-3-(4/5-methylimidazol-1-yl)propylamine [Example 54]			pIC50 [1, 4]: 4.92; Test B % inhibition at 100 mg/kg [2]: 63%
CC(NCCCn1ccnc1)c1ccc(Cl)cc1O (centres unmarked) [Example 29, 5-chloro-2-{1-[3-(imidazol-1-yl)propylamino]ethyl}phenol dihydrochloride]	4.47	36	
CC(NCCCn1ccnc1)c1ccccc1Cl (centres unmarked) [Example 8, N-[1-(2-Chlorophenyl)ethyl]-3-(imidazol-1-yl)propylamine]	4.04	55	
Clc1ccc(CNCCCn2ccnc2)c(Cl)c1 [Example 41, N-(2,4-Dichlorobenzyl)-3-(imidazol-1-yl)propylamine]	4.24	29	
Cc1cc(Cl)ccc1CNCCCn1ccnc1 [Example 40, N-(4-Chloro-2-methylbenzyl)-3-(imidazol-1-yl)propylamine dihydrochloride]	4.30	31	
Cc1ncn(CCCNC(C)c2ccc(Cl)cc2)c1C (centres unmarked) [Example 24, N-[1-(4-Chlorophenyl)ethyl]-3-(4,5-dimethylimidazol-1-yl)propylamine dihydrochloride]	4.96	34	
Cc1cn(CCCNCc2ccc(Cl)cc2)c(Cc2ccccc2)n1 [Example 47]			pIC50 [1, 4]: 5.15; Test B % inhibition at 100 mg/kg [2]: 35%
CC(NCCCn1ccnc1)c1cccc(Cl)c1 (centres unmarked) [Example 7, N-[1-(3-Chlorophenyl)ethyl]-3-(imidazol-1-yl)propylamine]	4.03	48	
CC(NCC(C)(C)Cn1ccnc1)c1ccc(Cl)cc1 (centres unmarked) [Example 58, N-[1-(4-chlorophenyl)ethyl]-3-(imidazol-1-yl)-2,2-dimethylpropylamine]	4.26	79	
CCc1nccn1CCCNC(C)c1ccc(Cl)cc1 (centres unmarked) [Example 53, N-[1-(4-Chlorophenyl)ethyl]-3-(2-ethylimidazol-1-yl)propylamine dihydrochloride]	4.51	27	
CC(NCCCn1ccnc1)c1ccc(Cl)cc1.Cl.Cl (single isomer, unassigned; (-)) [Example 57, (-)N-[1-(4-Chlorophenyl)ethyl]-3-(imidazol-1-yl)propylamine dihydrochloride]			pIC50 ([1]; inhibition of arachidonic acid release, six concentrations (100, 50, 20, 10, 5 and 1 μM), 5 h with zymosan, dihydrochloride): 4.70; Test B % inhibition at 100 mg/kg ([2]; dihydrochloride): 48%
Cc1ncn(CCCNCc2ccc(Cl)cc2)c1C [Example 45, N-(4-Chlorobenzyl)-3-(4,5-dimethylimidazol-1-yl)propylamine dihydrochloride]	5.10	6	
CC(NCCCn1ccnc1)c1ccc(Oc2ccccc2)cc1 (centres unmarked) [Example 16, 3-(Imidazol-1-yl)-N-[1-(4-phenoxyphenyl)ethyl]propylamine]		9	pIC50 ([1]; Mus musculus, Macrophage, 5 h): 5.10
CC(NCCCn1ccnc1)c1ccc(Cl)cc1 (single isomer, unassigned; (+)) [Example 93, (+)N-[1-(4-chlorophenyl)ethyl]-3-(imidazol-1-yl)-propylamine (+) ditartrate]			pIC50 [1, 4]: 4.80; Test B % inhibition at 100 mg/kg [2]: 57%
CC(NCCCCCn1ccnc1)c1ccc(Cl)cc1 (centres unmarked) [Example 55, N-[1-(4-Chlorophenyl)ethyl]-5-(imidazol-1-yl)pentylamine dioxalate]	4.49	45	
